“And” between values parts separate entries of the source, which are not always exact repeats. Equal entries are not always repeated.
Key:
[1] = test system: Vencobb 400 breed of broiler chicken; test: Pilot study in chicks: body weight; type: in vivo; conditions: Treatment group
Procedure: (§1) A pilot study in 5605 chicks to evaluate the role of Menaquinone-n in bird weight increase, FCR and cost efficiency. The chicks were divided into Treatment group (N=2839) and Control group (N=2766). Menaquinone-7 (provided by Synergia Life Sciences as a 2000 ppm water dispersible powder) was administered to the treatment group for 30 days as per dosage outlined in Table 1. The birds were acclimatized for initial 4 days. Menaquinone-7 in divided doses was started on day 5 till day 30 and they were vaccinated on day 6.
(§2) 5605 day old chicks were selected for the study. They were divided into Treatment group consisting of 2839 chicks, while the remaining 2766 were included in the Control group. The chicks were acclimatized for initial 4 days.
(§3) Menaquinone-7 (provided by Synergia Life Sciences as a 2000 ppm water dispersible powder) was administered daily […] to the treatment group in daily dosages as outlined in Table 1. Menaquinone-7 in divided doses was started on day 5 till day 30 and the chicks were vaccinated on day 6. The body weight of the chicks was determined, and mortality rate observed on Day 11, Day 16, Day 22 and Day 28.
(§4) A poultry farm with two open shades was selected for the study. Vencobb 400 breed of broiler chicken were selected for the study. Vencobb 400 breed was selected because at breeder level it is an early maturing bird with early peak, sustained production and better feed efficiency. Vencobb 400 is known for its proven adaptability to varied climatic conditions and husbandry practices.
(§5) The chicks were housed in poultry sheds with tin rooting and open shade sides. Water was fed ad libitum through bell water feeders. The litter consisted of rice husk before housing the birds the cages were sanitized with hypo chloride, The chicks were provided with feed supplied from Godrej Tyson Foods, ad libitum.
(§6) Menaquinone 7 supplementation was in a drinking water as in Table 1. Water was made up to the required level as required daily.
Body weight was estimated by catching 5 birds in each group and determining the total weight and reporting the average at the intervals recorded in Table 2. At the end of treatment, after catching the total catching weight was recorded and the average weight determined.

[2] = test system: Vencobb 400 breed of broiler chicken; test: Pilot study in chicks: cage side observations; type: in vivo
Procedure: Cage side observations like daily life behavior patterns, odor of litter etc. were recorded.

Birds = test: Comparative study of control and treated group (Table 4): mortality, weight, FCR; type: in vivo; conditions: Treated group, 2000 birds, K2 supplementation 15 g of 2000 ppm
Procedure: Feed conversion ratio was calculated by taking the total amount of feed consumed by the bird and dividing it by the amount of weight gained.

[3] = test system: Vencobb 400 breed of broiler chicken; test: Pilot study in chicks: mortality; type: in vivo; conditions: for Cumulative Mortality: Treatment group (N=2839)
Procedure: as §1, §2, §3, §4, §5, §6

[4] = regular MK-7 intake; cited from earlier work

SMILES: CC(C)=CCC/C(C)=C/CC/C(C)=C/CC/C(C)=C/CC/C(C)=C/CC/C(C)=C/CC/C(C)=C/CC1=C(C)C(=O)c2ccccc2C1=O [Menaquinone-7]
- Average weight (kg) per chick ([1]; Day 0 (before dosing; dosing day 5 to day 30 in drinking water)): 0.05 kg
- Average weight (kg) per chick ([1]; Day 5 (start of dosing)): 0.05 kg
- Average weight (kg) per chick ([1]; Day 11): 0.622 kg
- Average weight (kg) per chick ([1]; Day 16): 0.966 kg
- Average weight (kg) per chick ([1]; Day 22): 1.36 kg
- Average weight (kg) per chick ([1]; Day 28): 2 kg and 2.0 kg
- Ammonia odor in the litter (cage side observation) ([2]; Treatment group as compared to the control group): reduced ammonia odor
- Stress due to heat, vaccination and crowding (cage side observation) ([2]; Treatment group in comparison to the control group): appeared comfortable
- Avg wt./bird (Birds): 2.1560 kg
- FCR (Birds): 0.728
- Mortality (Birds): 1.8%
- Cumulative Mortality ([3]; Day 0): 0
- Cumulative Mortality ([3]; Day 5 (start of dosing)): 30
- Cumulative Mortality ([3]; Day 11): 61
- Cumulative Mortality ([3]; Day 16): 87
- Cumulative Mortality ([3]; Day 22): 95
- Cumulative Mortality ([3]; Day 28): 100
- Overall reduction in mortality rate ([3]; Treatment group versus control group, end of 28th day): over 4%
- Mortality rate/day ([3]; Treatment group, Day 5 (start of dosing)): 7.5 per day
- Mortality rate/day ([3]; Treatment group, Day 11): 2.8 per day
- Mortality rate/day ([3]; Treatment group, Day 16): 5.2 per day
- Mortality rate/day ([3]; Treatment group, Day 22): 1.3 per day
- Mortality rate/day ([3]; Treatment group, Day 28): 0.8 per day
- Mortality % (overall mortality) ([3]; Treatment group, end of 28th day): 3.52%
- Blood levels, times higher than when not regularly taken [4]: 7-8 times
